ChEMBL document CHEMBL1208717, “Antimalarial 3-arylamino-6-benzylamino-1,2,4,5-tetrazines” (Bioorg Med Chem Lett, 2010)
Where “and” joins values, the source holds several entries; their conditions need not be identical. Equal values may be shown once. Blank lines part the entries; values can stand above or below the compound they belong to.

How the values were obtained:
L6 = experiment: Cytotoxicity against rat L6 cells; assay type: cell-based
Plasmodium falciparum [1] = experiment: Antimalarial activity against erythrocytic stage of chloroquine-resistant Plasmodium falciparum Dd2; assay type: functional, organism-based
Leishmania infantum = experiment: Antileishmanial activity against amastigote stage of Leishmania infantum; assay type: functional, organism-based
[2] = Cytotoxicity against human HEK cells at 29 uM; assay type: cell-based; conditions: hek293, 29 µM
Plasmodium falciparum [3] = experiment: Antimalarial activity against erythrocytic stage of Plasmodium falciparum 3D7; assay type: functional, organism-based
Trypanosoma cruzi = experiment: Antitrypanosomal activity against amastigote stage of Trypanosoma cruzi Tulahuen C2C4; assay type: functional, organism-based; conditions: Tulahaen C2C4
[4] = test system: Trypanosoma brucei rhodesiense; experiment: Antitrypanosomal activity against bloodstream form of Trypanosoma brucei rhodesiense STIB 900; assay type: functional, organism-based
Plasmodium falciparum [5] = experiment: Antimalarial activity against erythrocytic stage of chloroquine-resistant Plasmodium falciparum Dd2 at 115 uM; assay type: functional
[6] = Cytotoxicity against human HEK cells at 115 uM; assay type: cell-based; conditions: hek293, 115 µM
Plasmodium falciparum [7] = experiment: Antimalarial activity against erythrocytic stage of Plasmodium falciparum 3D7 at 115 uM; assay type: functional, organism-based
[8] = Cytotoxicity against human HEK cells at 38 uM; assay type: cell-based; conditions: hek293, 38 µM
Plasmodium falciparum [9] = experiment: Antimalarial activity against erythrocytic stage of Plasmodium falciparum 3D7 at 38 uM; assay type: functional, organism-based
[10] = Cytotoxicity against human HEK cells; assay type: cell-based; conditions: HEK293
[11] = Plasmodium falciparum, Dd2, read-out: EC50

Compound: Clc1ccc(Nc2nnc(NCc3ccccc3)nn2)cc1
IC50 (L6): > 32 µM
EC50 (Plasmodium falciparum [1]; [11]): 1.1 µM
EC50 (Leishmania infantum): 16 µM
Activity [2]: 58%
EC50 (Plasmodium falciparum [3]): 0.44 µM and 1.1 µM
EC50 (Trypanosoma cruzi): 15 µM
EC50 [4]: > 32 µM

Compound: Clc1ccc(Nc2nnc(NCCc3ccccc3)nn2)cc1
Activity (Plasmodium falciparum [5]): 88%
Activity [6]: Non-toxic
Activity (Plasmodium falciparum [7]): 85%

Compound: CN(c1ccc(Cl)cc1)c1nnc(NCc2ccccc2)nn1
IC50 [10]: 12 µM
EC50 (Plasmodium falciparum [1]; [11]): 3.5 µM
EC50 (Plasmodium falciparum [3]; Plasmodium falciparum, 3D7): 2.4 µM

Compound: CN(C)CCN(c1ccc(Cl)cc1)c1nnc(NCc2ccccc2)nn1
IC50 [10]: 38 µM
EC50 (Plasmodium falciparum [1]; [11]): 20 µM
EC50 (Plasmodium falciparum [3]; Plasmodium falciparum, 3D7): 13 µM

Compound: CN(C)CCOc1cccc(Nc2nnc(NCc3ccccc3)nn2)c1
Activity [8]: 52%
EC50 (Plasmodium falciparum [1]; [11]): 13 µM
EC50 (Plasmodium falciparum [3]; Plasmodium falciparum, 3D7): 15 µM

Compound: CN(C)CCOc1cccc(CNc2nnc(Nc3ccc(Cl)cc3)nn2)c1
IC50 [10]: 21 µM
EC50 (Plasmodium falciparum [1]): 6 µM
EC50 (Plasmodium falciparum [3]; Plasmodium falciparum, 3D7): 5 µM

Continued, in another order:

EC50 (Plasmodium falciparum [9]): Not Active
Compound: CC(Nc1nnc(Nc2ccc(Cl)cc2)nn1)c1ccccc1 (configuration not stated)
Activity [8]: Non-toxic

EC50 (Plasmodium falciparum [7]): Not Active
Compound: CNc1nnc(NCc2ccccc2)nn1
Activity [6]: Non-toxic

EC50 (Plasmodium falciparum [7]): Not Active
Compound: CCCCNc1nnc(NCc2ccccc2)nn1
Activity [6]: Non-toxic

EC50 (Plasmodium falciparum [7]): Not Active
Compound: c1ccc(CNc2nnc(Nc3ccccc3)nn2)cc1
Activity [6]: Non-toxic

EC50 (Plasmodium falciparum [7]): Not Active
Compound: CN(C)CCN(Cc1ccccc1)c1nnc(N(CCN(C)C)c2ccc(Cl)cc2)nn1
Activity [6]: Non-toxic

EC50 (Leishmania infantum): 8.6 µM
EC50 (Plasmodium falciparum [3]; Plasmodium falciparum, 3D7): 0.18 µM
EC50 (Trypanosoma cruzi): 16 µM
EC50 [4]: 5.7 µM
Compound: COc1nncc(-c2cnnc(SC)n2)n1
IC50 (L6): 33 µM
